# Assays:
# [1] = tested on: MBP expression in the cerebellum; experiment: MBP expression by western blot of offspring cerebellum after maternal NANA supplementation during lactation; assay type: in vivo, rat
# Experimental: (§1) FIGS. 3A and 3B show the maternal NANA supplementation protocol for experiments testing additional doses of NANA administered during gestation (FIG. 3A) and lactation (FIG. 3B).
# To further assess the effects of maternal NANA supplementation during lactation on the brain development of offspring, MBP expression was measured by western blot analysis of cerebellum that was harvested from pups at postnatal days 0, 8, and 16 described in FIG. 3B. As described in Example 2, the blots were probed with an antibody for MBP as described in Example 2 that recognizes the 18 kilodalton form (18 kD MBP) and 21 kilodalton form (21 kD MBP) and an antibody for β-actin as a protein loading control. Quantitation of MBP expression performed with densitometry of the bands in each lane, and each lane represented an individual animal as described in Example 2.
# The graphs in FIGS. 12A and 12B represent the average intensity of MBP expression normalized by the corresponding actin signal in relative fluorescence units (Normalized R.F.U.).
# [2] = tested on: thickness of MBP expression in white matter of p16 pup brain; experiment: Thickness of MBP expression in offspring brain slices by MBP immunohistochemistry and confocal laser microscopy; assay type: in vivo, Long-Evans rats; conditions: p16 pups
# Text: To determine the effects of supplementing maternal diets with sialic acid (n-acetylneuraminic acid; NANA) on the brain development of the offspring, forty (40) pregnant Long-Evans rats were placed on four (4) diets (10 dams per diet) that differed in their administration of sialic acid (Nacalai, San Diego, Calif.). All animals were started on the diets on the 4th day after being mated (gestational day 4). […]
# as §1
# To determine the effects of maternal NANA supplementation on the brain development of offspring, assessment of the CC and LOT was performed by taking thin slices of the p16 pup brain described in FIG. 2, staining the slices with MBP immunohistochemistry, and measuring the areas of interest with confocal laser microscopy. […] The locations of the LOT and regions associated with the anterior commissure (AC) are also illustrated in FIG. 7A. […]
# (§2) To further assess the effects of maternal NANA supplementation during lactation on the brain development of offspring, assessment of the corpus callosum (CC) and lateral olfactory tract (LOT) was performed by taking thin slices of the p16 pup brain (LacDR p16) described in FIG. 3B, staining the slices with MBP immunohistochemistry, and quantitating the areas of interest with confocal laser microscopy as described in Example 2. Maternal supplementation with NANA at doses of 25 mg/kg/d, 50 mg/kg/d, 100 mg/kg/d and 200 mg/kg/d was tested.
# as §2, with “motor pyramids” for “corpus callosum (CC)”, “medial lemniscus” for “lateral olfactory tract (LOT)”
# [3] = NANA and Neu5Gc concentrations in cerebrospinal fluid after a single oral NANA dose; assay type: in vivo, rat; conditions: single oral dose NANA 200 mg/kg
# Experimental: To assess whether NANA is bioavailable to the brain in its native form or whether NANA is processed on its way across the blood-brain barrier, the levels of NANA and one of its potential metabolites were measured in rat cerebrospinal fluid (CSF). The animals' diets were first cleared of NANA by placing them on NANA-free diets for one week. The animals were then given a single, oral dose of NANA (200 mg/kg), and the CSF of each animal was sampled at 0, 0.25, 1, 2, 4, and 6 hours after dosing. The concentrations of NANA and Neu5Gc in the CSF were then assessed by high-pressure liquid chromatography coupled with fluorescence detection methods and quantitation standards.
# hippocampal cultures = experiment: Ex vivo neurite extension (Map2a staining) in hippocampal cultures from offspring of NANA-supplemented dams; set-up: species or system Long-Evans rats; conditions: 6 days culture
# Text: (§3) To determine the effects of supplementing maternal diets with sialic acid (n-acetylneuraminic acid; NANA) on the brain development of the offspring, forty (40) pregnant Long-Evans rats were placed on four (4) diets (10 dams per diet) that differed in their administration of sialic acid (Nacalai, San Diego, Calif.). All animals were started on the diets on the 4th day after being mated (gestational day 4).
# […] These animals were then placed on a base diet after the offspring were born. Conversely, dams on the lactational diet (“fact”) were placed on the base diet during gestation but received NANA (200 mg/kg/d) through the diet during lactation. […]
# To determine the effects of maternal NANA supplementation on the brain development of offspring, neurite extension was measured in hippocampal cultures made from p0 pups described in FIG. 2. […] The number of cells in each culture was assessed by staining with 4′,6-diamidino-2-phenylindole (DAPI).
# The percent area of Map2a staining was determined by computerized counting of all Map2a positive pixels in each image (5 random fields for each of 9-10 cultures per group; 1 culture per animal). […] A two-tailed, unpaired students t-test was used to compare the two groups, and the test detected a significant difference between the supplemented group and the control group (**, p<0.01). […]
# [4] = tested on: myelin basic protein (MBP) expression in the developing whole brain; experiment: MBP expression by western blot of whole brain lysates of offspring after maternal NANA supplementation; assay type: in vivo, Long-Evans rats
# Text: as §3
# Dams placed on the gestational diet (“Gest”) received NANA (200 milligrams (mg) per kilogram (kg) body weight per day (d)) only during gestation. These animals were then placed on a base diet after the offspring were born. Conversely, dams on the lactational diet (“fact”) were placed on the base diet during gestation but received NANA (200 mg/kg/d) through the diet during lactation. Dams receiving NANA (200 mg/kg/d) through the diet throughout gestation and lactation were known as the “G+L” group.
# After birth, the pups born to each diet group were crossfostered within their respective group to control for any differences in maternal care. The litters were then culled to 10 pups per dam to prevent nutritional differences caused by lack of access to the dam. The study was also designed to allow for the use of 5 pups at each endpoint (N=5) while keeping the litter size equal across all groups. Pups were taken at postnatal day 1 (p1) to determine potential differences between gestational supplementation and lactational supplementation of the maternal diet. […] Pups were also taken at p8 because it served as a midway timepoint and because the primary biomarker used cannot be detected until this day in rat development.
# To determine the effects of maternal NANA supplementation on the brain development of offspring, MBP expression was measured by western blot analysis of whole brain lysates that were harvested from pups at postnatal days 0, 8, and 16 described in FIG. 2. […]
# The graphs represent the average intensity of MBP expression normalized by the corresponding actin signal in relative fluorescence units (Normalized R.F.U.).
# [5] = mice, dams and pups lacking the gene to produce Neu5Gc; cited from earlier work
# [6] = maternal NANA during lactation, at certain doses tested, ANOVA p<0.001
# [7] = maternal NANA 25-200 mg/kg/d during gestation
# [8] = maternal NANA 25-200 mg/kg/d during lactation, p<0.01 / p<0.001
structure (smiles),measurement,setting,value
"CC(=O)N[C@H]1[C@H]([C@H](O)[C@H](O)CO)OC(O)(C(=O)O)C[C@@H]1O (some centres unmarked) [NANA, N-acetylneuraminic acid]",total MBP (combined 18 kDa and 21 kDa) in cerebellum,"[1]; maternal NANA 25 mg/kg/d during lactation, p<0.01",significant increase
same,total MBP (combined 18 kDa and 21 kDa) in cerebellum,"[1]; maternal NANA 100 mg/kg/d during lactation, p<0.05",significant increase
same,total MBP (combined 18 kDa and 21 kDa) in cerebellum,"[1]; maternal NANA 200 mg/kg/d during lactation, p<0.01",significant increase
same,expression of 18 kDa MBP normalized to actin in cerebellum,[1]; [6],significant increase
same,expression of 21 kDa MBP normalized to actin in cerebellum,[1]; [6],significant increase
same,thickness of MBP expression in the motor pyramids,"[2]; maternal NANA 50 mg/kg/d during lactation, p=0.022",significant increase
same,maximal thickness of MBP expression in the lateral olfactory tract (LOT),"[2]; maternal NANA 200 mg/kg/d during gestation, lactation or gestation plus lactation",significant increases
same,thickness of MBP expression in the corpus callosum (CC),"[2]; maternal NANA 200 mg/kg/d during gestation, lactation or gestation plus lactation, ANOVA p<0.001",significant increases
same,thickness of MBP expression in the middle CC,[2]; [7],did not appear to change
same,thickness of MBP expression in the midline CC decussation,[2]; [7],did not appear to change
same,thickness of MBP expression in the frontal CC,"[2]; maternal NANA 25-200 mg/kg/d during gestation, p<0.001",significant increases
same,thickness of MBP expression in the LOT,"[2]; maternal NANA 25-200 mg/kg/d during gestation, p<0.05 / p<0.001",significant increases
same,thickness of MBP expression in the medial lemniscus,"[2]; maternal NANA 25-200 mg/kg/d during gestation, p<0.05 / p<0.01",significant increases
same,thickness of MBP expression in the motor pyramids,"[2]; maternal NANA 25-200 mg/kg/d during gestation, p<0.05 to p<0.001",significant increases
same,thickness of MBP expression in the medial lemniscus,[2]; maternal NANA 25-200 mg/kg/d during lactation,no significant changes
same,thickness of MBP expression in the LOT,"[2]; maternal NANA 25-200 mg/kg/d during lactation, p<0.001",significant increases
same,thickness of MBP expression in the midline CC,[2]; [8],significant increases
same,thickness of MBP expression in the rostral CC,[2]; [8],significant increases
same,thickness of MBP expression in the midline CC decussation,"[2]; maternal NANA 25-200 mg/kg/d during lactation, p<0.05 / p<0.001",significant increases
same,thickness of MBP expression in the motor pyramids,"[2]; maternal NANA during lactation, the other doses tested (25, 100, 200 mg/kg/d)",no significant changes
same,time at which CSF NANA returned to baseline values,[3]; rat CSF,≤ 1 h
same,time of peak of native NANA in CSF after dosing,[3]; rat CSF,15 min
same,blood-brain barrier crossing of native NANA,"[3]; rat, from CSF levels",crossed the blood-brain barrier
same,percent area of Map2a staining per neuron (neurite extension),"hippocampal cultures; dams fed NANA 25, 50, 100, 200 mg/kg/d during gestation, p<0.01 / p<0.001",significantly greater
same,percent area of Map2a staining per neuron (neurite extension),"hippocampal cultures; p0 pups, dams fed NANA 200 mg/kg/d during gestation, p<0.01 vs control",significantly greater
same,"expression of both MBP isoforms, lactational diet compared to NANA-deficient diet","[4]; NANA 200 mg/kg/d during lactation only, overall analysis and postnatal day 8, Tukey p<0.05",significantly increased
same,expression of 21 kDa MBP normalized to β-actin,"[4]; whole brain of pups, maternal NANA 200 mg/kg/d in diet, one-way ANOVA p=0.012",significant increase
same,expression of 18 kDa MBP normalized to β-actin,"[4]; whole brain of pups, maternal NANA 200 mg/kg/d in diet, one-way ANOVA p=0.037",significant increase
"O=C(CO)N[C@H]1[C@H]([C@H](O)[C@H](O)CO)OC(O)(C(=O)O)C[C@@H]1O (some centres unmarked) [Neu5Gc, N-glycolylneuraminic acid]",transfer of Neu5Gc from fed dams to pups,[5],does not transfer
